Source: ChEMBL document CHEMBL1201862, “PubChem BioAssay data set” (2004)
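Protocol summary: plate cells (96-well), add compound at 5 concentrations, incubate 48 h, interpolate endpoints linearly. At the GI50, growth is halved.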 Calls of active or inactive are those of the source. Cut-off read from the data, not from the text of the source: active = GI50 up to about 1.1 µM and inactive = higher.

Key:
Test in all cases: inhibition of tumour cell growth, NCI panel, 48 h
[1] = tested on: KM12
[2] = tested on: NCI-H522
[3] = tested on: EKVX
[4] = tested on: UACC-62
[5] = tested on: SW-620
[6] = tested on: U-251
[7] = tested on: HCT-116
[8] = tested on: HOP-92
[9] = tested on: NCI-H460
[10] = tested on: NCI-H23
[11] = tested on: NCI-H226
[12] = tested on: UO-31
[13] = tested on: SNB-75
[14] = tested on: RPMI-8226
[15] = tested on: A498
[16] = tested on: HCC 2998
[17] = tested on: SN12C
[18] = tested on: CCRF-CEM
[19] = tested on: HL-60
[20] = tested on: SK-OV-3

Measured: GI50

CNC(=O)C(C)C1CCC2(C)C=CC(=O)C(C)=C2C1O (stereo not given)
inactive: [1] > 100 µM | [2] > 100 µM | [3] > 100 µM | [4] > 100 µM | [5] > 57.4 µM | [6] > 44.8 µM | [7] > 100 µM | [8] > 100 µM | [9] > 100 µM | [10] > 100 µM | [11] > 100 µM | [12] > 43.3 µM | [13] > 100 µM | [14] > 100 µM | [15] > 100 µM | [16] 67.3 µM | [17] > 100 µM | [18] > 100 µM | [19] > 100 µM | [20] > 100 µM

O=C(CC1=NCCN1)c1ccccc1
inactive: [1] > 750 µM | [2] > 750 µM | [3] > 750 µM | [4] > 750 µM | [5] > 750 µM | [6] > 750 µM | [7] > 750 µM | [8] > 319 µM | [9] > 511 µM | [10] > 750 µM | [11] > 536 µM | [12] 721 µM | [13] > 735 µM | [14] > 750 µM | [15] 62.8 µM | [16] > 750 µM | [17] > 750 µM | [18] > 511 µM | [19] 455 µM | [20] > 750 µM

COc1cc(/C=C/C(=O)O)ccc1C(=O)OCc1ccccc1
inactive: [1] > 100 µM | [2] > 100 µM | [3] > 100 µM | [4] > 100 µM | [5] > 100 µM | [6] > 100 µM | [7] > 100 µM | [8] > 100 µM | [9] > 100 µM | [10] > 100 µM | [11] > 100 µM | [12] > 100 µM | [13] > 100 µM | [14] > 100 µM | [15] > 100 µM | [16] > 100 µM | [17] > 100 µM | [18] > 100 µM | [19] > 100 µM | [20] > 100 µM

Nc1cc(O)c2cc(/N=N/c3ccc(/N=N/c4ccc(/N=N/c5ccc6cc(S(=O)(=O)O)cc(S(=O)(=O)O)c6c5)c5ccccc45)c4cc(S(=O)(=O)O)ccc34)c(S(=O)(=O)O)cc2c1
inactive: [1] > 100 µM | [2] 98.6 µM | [3] > 100 µM | [4] > 100 µM | [5] > 100 µM | [6] > 100 µM | [7] > 100 µM | [8] 32.2 µM | [9] > 100 µM | [10] > 100 µM | [11] 36.7 µM | [12] 85.9 µM | [13] 49.1 µM | [14] > 100 µM | [15] > 100 µM | [16] > 100 µM | [17] > 100 µM | [18] 61.5 µM | [19] 42.3 µM | [20] > 100 µM

COc1cc2c(cc1OC)-c1c3c(cc4c1[C@@H](C2)N(C)CC4)OCO3
inactive: [1] 7.4 µM | [2] 6.7 µM | [3] 11.4 µM | [4] 8.38 µM | [5] 3.92 µM | [6] 10.8 µM | [7] 2.87 µM | [8] 6.78 µM | [9] 2.53 µM | [10] 10.2 µM | [11] 7.06 µM | [12] 11.8 µM | [13] 7.29 µM | [14] 5.74 µM | [15] 4.69 µM | [16] 9.35 µM | [17] 6.14 µM | [18] 3.96 µM | [19] 7.26 µM | [20] 12.1 µM
